For orientation: melting point means the temperature, or range, at which the solid turns liquid. The term MIC denotes the lowest concentration that inhibits growth of the organism. Read a low MIC as inhibition by little substance. As usually defined, the CC50 is the concentration giving 50% cytotoxicity.

The test system of data set [1] is E. coli ATCC 25922. Briefly: Minimum inhibitory concentration (MIC) assay, broth microdilution. Format: cell-based. As to conditions: Escherichia coli, ATCC25922; E. coli ATCC 25922, Mueller-Hinton II broth, 37° C., 18 to 24 hours. Here is the method: (§1) The antimicrobial activity of the compounds of the invention may be evaluated by a number of methods, including the following visual minimum inhibitory concentration (MIC) assay. This assay determines the minimum concentration of compound required to inhibit growth of a bacterial strain. Whole-cell antibacterial activity is determined by broth microdilution using conditions recommended by the NCCLS (see National Committee for Clinical Laboratory Standards. 2001. Performance standards for antimicrobial susceptibility testing: 11th informational supplement. Vol. 21, no. 1, M100-S11. National Committee for Clinical Laboratory Standards, Wayne, Pa.). Test compounds are dissolved in DMSO and diluted 1:50 in Mueller-Hinton II broth (Becton-Dickinson) to produce a 256 μg/ml stock solution. In a 96-well microtiter plate, the compound solution is serially two-fold diluted in Mueller-Hinton II broth. After the compounds are diluted, a […] aliquot of the test organism (˜1×10^6 cfu/mL) is added to each well of the microtiter plate. The final test concentrations range from 0.125-128 μg/mL Inoculated plates are incubated in ambient air at 37° C. for 18 to 24 hours. The organisms selected for testing included laboratory strains S. aureus ATCC 29213 and E. coli ATCC 25922 (strains purchased from American Type Culture Collection, Manassas, Va.). The minimum inhibitory concentration (MIC) was determined as the lowest concentration of compound that inhibited visible growth of the test organism.

Data set [2] relates to S. aureus ATCC 29213. The data set is described as above. Format: cell-based. The conditions noted are these: Staphylococcus aureus, ATCC29213; S. aureus ATCC 29213, Mueller-Hinton II broth, 37° C., 18 to 24 hours. The protocol:
as §1

Data set [3] is described as follows: Compound cytotoxicity, cell viability staining with Alamar Blue. Format: cell-based. The conditions noted are these: Chinese hamster, CHO cells (Chinese hamster ovary), positive control. A general note: The colour change of resazurin is a common sign of viable cells or microbes.
Protocol: (§2) Optimal cell density is first determined by plating cells in a 96-well plate standard sterile tissue culture plates in 100 μl media, 10% FBS at six cell densities from 500 cells/well to 15,000 cells/well. A cell free well containing only media is used as a control. Cells are incubated at 37° C. in a 5% CO2 incubator for 24 hours. 10% culture volume (10 ul) of Alamar Blue (Biosource, DAL1100, 100 mL) is then added. Cells are incubated at 37° C. in a 5% CO2 incubator and read in a Victor V plate reader, 544 nm excitation, 590 nm emission, at 3, 4, and 24 hours after the addition of Alamar Blue. The cell number vs. change in fluorescence is plotted to determine linearity of signal vs. cell number. The optimal density varies between 500-15,000 cells/well depending on the specific cell type. The optimal density is selected based on the highest number of cells that is still in the linear response range. Cells are plated at optimal cell density in a standard sterile tissue culture 96 well plate, and incubated at 37° C., O/N in a 5% CO2 incubator. 12 to 48 hours post-plating media is removed. […] Plates are incubated 4 hours at 37° C. in a 5% CO2 incubator and read in a Victor V plate reader, 544 nm excitation, 590 nm emission. […] The change in fluorescence vs. concentration of test compound is plotted to determine the cytotoxicity of the compound.
Assay in data set [4]: as above
Protocol: as §2
The class given is cell-based. The conditions noted are these: human, Hep 2 cells (laryngeal carcinoma), positive control.

In brackets after ≈: the same amount, converted by molar mass. Bounds are passed on as bounds.

In the case of `O=c1[nH]sc2c1c(=O)c1cc(F)c(C3=CCNCC3)cc1n2C1CC1`, the melting point is > 241 °C (dec.). For `NC1CCc2cc(-c3cc4c(cc3F)c(=O)c3c(=O)[nH]sc3n4C3CC3)ccc2C1` (racemic) [Compound 31, (Rac)-7-(6-Amino-5,6,7,8-Tetrahydronaphthalen-2-Yl)-9-Cyclopropyl-6-Fluoro-9H-Isothiazolo[5,4-B]Quinoline-3,4-Dione], the melting point was > 257 °C (dec.). Regarding `O=c1[nH]sc2c1c(=O)c1cc(F)c(-c3ccccc3)cc1n2C1CC1` [Compound 32, 9-Cyclopropyl-6-fluoro-7-phenyl-9H-isothiazolo[5,4-b]quinoline-3,4-dione], the figures for the MIC in data set [1] and in data set [2] were 0.06 µg/mL (≈ 0.17 µM) and 0.007 µg/mL (≈ 0.0199 µM), respectively.

`O=c1[nH]sc2c1c(=O)c1cc(F)c(-c3cccnc3)cc1n2C1CC1` [Compound 33, 9-Cyclopropyl-6-fluoro-7-pyridin-3-yl-9H-isothiazolo [5,4-b]quinoline-3,4-dione]: the MIC in data set [1] was 0.003 µg/mL (≈ 0.00849 µM); in data set [2], 0.007 µg/mL (≈ 0.0198 µM).

As to `O=C(O)c1cccc(-c2cc3c(cc2F)c(=O)c2c(=O)[nH]sc2n3C2CC2)c1` [Compound 34, 3-(9-Cyclopropyl-6-fluoro-3,4-dioxo-2,3,4,9-tetrahydro-isothiazolo[5,4-b]quinolin-7-yl)-benzoic acid], the values for the MIC in data set [1] and in data set [2] were 1 µg/mL (≈ 2.52 µM) and 0.125 µg/mL (≈ 0.315 µM), respectively. Turning to `CCOc1cccc(-c2cc3c(cc2F)c(=O)c2c(=O)[nH]sc2n3C2CC2)c1` [Compound 35, 9-Cyclopropyl-7-(3-ethoxy-phenyl)-6-fluoro-9H-isothiazolo[5,4-b]quinoline-3,4-dione], the MIC was determined as 1 µg/mL (≈ 2.52 µM) in data set [1] and 0.03 µg/mL (≈ 0.0757 µM) in data set [2]. Regarding `CC(C)(C)c1ccc(C(O)CCCN2CCC(C(O)(c3ccccc3)c3ccccc3)CC2)cc1` (stereo not drawn) [Terfenadine], the results for the CC50 in data set [3] and in data set [4] were 4.3 to 6.5 µM and 3 to 5 µM, respectively.

(Values after patent US20110223132A1, “ISOTHIAZOLOQUINOLONES AND RELATED COMPOUNDS AS ANTI-INFECTIVE AGENTS” (priority 2003, published 2011).)
